Earlier results as cited in article PMC4412765 (Chemical biology & drug design, 2014).

Tested on: S. aureus
Details: cited from earlier work

Structure (SMILES): C(=C\c1cc2ccc(C3=NCCN3)cc2[nH]1)/c1cc2ccc(C3=NCCN3)cc2[nH]1 [BPH-1417]
- in vitro activity against S. aureus: potent
